Drawing on paper PMC4434044, “Influence of terpenoids and acarbose on glycosyltransferases produced by strain Leuconostoc mesenteroides URE 13” (Biotechnology, Biotechnological Equipment, 2014), this text covers Ki and Km for four molecules.

Assay [1] addresses T1, dextransucrase from Leuconostoc mesenteroides URE 13.
T1 construct: native extracellular enzyme, 180 kDa, from sucrose-grown culture; PEG 1500 precipitation and Sepharose CL-6B size-exclusion
In words: fructose/glucose release from sucrose, coupled hexokinase assay; Lineweaver-Burk. It counts as biochemical. The settings on record: 1-200 mmol sucrose, 20 mmol/L sodium acetate pH 5.2, 30 °C, inhibition mode not stated.

For assay [2], the system named is T1, dextransucrase from Leuconostoc mesenteroides URE 13. In words: fructose/glucose release from sucrose, coupled hexokinase assay. It counts as biochemical. The conditions noted are these: 20 mmol/L sodium acetate pH 5.2-5.3, 30 °C; substrate inhibition above 200 mmol.
Where [3] appears, read: terpenoid dissolved in DMSO (20% final).

SMILES strings stand for the structures.

For `C[C@H]1O[C@H](O[C@H]2[C@H](O)[C@@H](O)[C@@H](O[C@H]3[C@H](O)[C@@H](O)C(O)O[C@@H]3CO)O[C@@H]2CO)[C@H](O)[C@@H](O)[C@@H]1N[C@H]1C=C(CO)[C@@H](O)[C@H](O)[C@H]1O` (stereo partly shown) [acarbose], in assay [1], the Ki is reported as 0.29 mmol.
`CC(=O)OC1C=CC2C(=O)OCC23CCC2C(=O)OC(c4ccoc4)C(OC(C)=O)C2(C)C13` (stereo not shown) [splendidin] had a Ki in assay [1] (setting [3]) of 0.28 mmol.
As to `OC[C@H]1O[C@@](CO)(O[C@H]2O[C@H](CO)[C@@H](O)[C@H](O)[C@H]2O)[C@@H](O)[C@@H]1O` [sucrose], in assay [2], the Km is 18.0 mmol.
In assay [1] (setting [3]), `C[C@H]1[C@H](C)CC[C@]2(C(=O)O)CC[C@]3(C)C(=CC[C@@H]4[C@@]5(C)CC[C@H](O)C(C)(C)[C@@H]5CC[C@]43C)[C@H]12` [ursolic acid] gave a Ki of 0.37 mmol.
